According to ChEMBL document CHEMBL5370612, “Cytotoxic Epipolythiodioxopiperazines from the Deep-Sea-Derived Fungus Exophiala mesophila MCCC 3A00939” (J Nat Prod, 2023):
pIC50: −log10 of the molar value.

Assays:
[1] = Cytotoxicity against human L02 cells by SRB method; type: toxicity, cell-based
K562 = assay: Cytotoxicity against human K562 cells by MTT method; type: functional, cell-based
ASPC1 = assay: Cytotoxicity against human ASPC1 cells by SRB method; type: functional, cell-based
H69AR = assay: Cytotoxicity against human NCI-H69AR cells by SRB method; type: functional, cell-based
MDA-MB-231 = assay: Cytotoxicity against human MDA-MB-231 cells by SRB method; type: functional, cell-based

| Compound | pIC50 [1] | pIC50 (K562) | pIC50 (ASPC1) | pIC50 (H69AR) | pIC50 (MDA-MB-231) |
| --- | --- | --- | --- | --- | --- |
| CS[C@@]12CC3=COC=C[C@H](OC(C)=O)[C@H]3N1C(=O)[C@]1(SC)CC3=COC=C[C@H](OC(C)=O)[C@H]3N1C2=O | < 4.52 | < 4.52 | < 4.52 | < 4.52 | < 4.52 |
| CS[C@@]12CC3=COC=C[C@H](O)[C@H]3N1C(=O)[C@]1(SC)CC3=COC=C[C@H](O)[C@H]3N1C2=O | < 4.52 | < 4.52 | < 4.52 | < 4.52 | < 4.52 |
| CS[C@@]12CC3=COC=C[C@H](OC(C)=O)[C@H]3N1C(=O)[C@]1(SC)CC3=COC=C[C@H](O)[C@H]3N1C2=O | < 4.52 | < 4.52 | < 4.52 | < 4.52 | < 4.52 |
| CS[C@@]12CC3=COC=C[C@H](OC(=O)CC(C)=C(C)C)[C@H]3N1C(=O)[C@]1(SC)CC3=COC=C[C@H](O)[C@H]3N1C2=O | < 4.52 | < 4.52 | < 4.52 | < 4.52 | < 4.52 |
| CS[C@@]12CC3=COC=C[C@H](OC(C)=O)[C@H]3N1C(=O)[C@]1(SC)CC3=COC=C[C@H](OC(=O)CC(C)=C(C)C)[C@H]3N1C2=O | < 4.52 | < 4.52 | < 4.52 | < 4.52 | 4.54 |
| CC(C)=C(C)CC(=O)O[C@H]1C=COC=C2C[C@@]34SSSS[C@]5(CC6=COC=C[C@H](O)[C@H]6N5C3=O)C(=O)N4[C@@H]21 | 5.07 | 5.64 | 4.89 | 5.23 | 5.43 |
| O=C(Cc1ccccc1)O[C@H]1C=COC=C2C[C@@]34SSSS[C@]5(CC6=COC=C[C@H](O)[C@H]6N5C3=O)C(=O)N4[C@@H]21 | 4.74 | 5.51 | 4.60 | 5.44 | 5.37 |
| CC(=O)O[C@H]1C=COC=C2C[C@@]34SS[C@]5(CC6=COC=C[C@H](O)[C@H]6N5C3=O)C(=O)N4[C@@H]21 [ARANOTIN] | 4.80 | 5.85 | 4.96 | 5.77 | 6.15 |
| COc1cccc2c1C(=O)c1c(O)c3c(c(O)c1C2=O)C[C@@](O)(C(=O)CO)C[C@@H]3O[C@H]1C[C@H](N)[C@H](O)[C@H](C)O1 [DOXORUBICIN] | > 6.00 | > 6.00 | > 6.00 | > 6.00 | > 6.00 |
